Assay results from ChEMBL document CHEMBL4184305, “Inhibition of histone lysine methyltransferases G9a and GLP by ejection of structural Zn(II)” (Bioorg Med Chem Lett, 2018).
Activity calls are given as the source filed them. The calls are words filed in the database; no cut-off is given here.

Assays:
[1] = target: T1, Histone-lysine N-methyltransferase EHMT2 (Homo sapiens) (UniProt Q96KQ7); test: (§1) Inhibition of wild type recombinant human histone lysine methyltransferase G9a (913 to 1193 residues) expressed in Escherichia coli Rosetta BL21 DE3 PlysS at 10 uM using ARTKQTARKSTGGKA as substrate preincubated for 5 mins followed by substrate/SAM addition measured after 60 mins by MALDI-TOF MS analysis
T1 sequence (whole entry): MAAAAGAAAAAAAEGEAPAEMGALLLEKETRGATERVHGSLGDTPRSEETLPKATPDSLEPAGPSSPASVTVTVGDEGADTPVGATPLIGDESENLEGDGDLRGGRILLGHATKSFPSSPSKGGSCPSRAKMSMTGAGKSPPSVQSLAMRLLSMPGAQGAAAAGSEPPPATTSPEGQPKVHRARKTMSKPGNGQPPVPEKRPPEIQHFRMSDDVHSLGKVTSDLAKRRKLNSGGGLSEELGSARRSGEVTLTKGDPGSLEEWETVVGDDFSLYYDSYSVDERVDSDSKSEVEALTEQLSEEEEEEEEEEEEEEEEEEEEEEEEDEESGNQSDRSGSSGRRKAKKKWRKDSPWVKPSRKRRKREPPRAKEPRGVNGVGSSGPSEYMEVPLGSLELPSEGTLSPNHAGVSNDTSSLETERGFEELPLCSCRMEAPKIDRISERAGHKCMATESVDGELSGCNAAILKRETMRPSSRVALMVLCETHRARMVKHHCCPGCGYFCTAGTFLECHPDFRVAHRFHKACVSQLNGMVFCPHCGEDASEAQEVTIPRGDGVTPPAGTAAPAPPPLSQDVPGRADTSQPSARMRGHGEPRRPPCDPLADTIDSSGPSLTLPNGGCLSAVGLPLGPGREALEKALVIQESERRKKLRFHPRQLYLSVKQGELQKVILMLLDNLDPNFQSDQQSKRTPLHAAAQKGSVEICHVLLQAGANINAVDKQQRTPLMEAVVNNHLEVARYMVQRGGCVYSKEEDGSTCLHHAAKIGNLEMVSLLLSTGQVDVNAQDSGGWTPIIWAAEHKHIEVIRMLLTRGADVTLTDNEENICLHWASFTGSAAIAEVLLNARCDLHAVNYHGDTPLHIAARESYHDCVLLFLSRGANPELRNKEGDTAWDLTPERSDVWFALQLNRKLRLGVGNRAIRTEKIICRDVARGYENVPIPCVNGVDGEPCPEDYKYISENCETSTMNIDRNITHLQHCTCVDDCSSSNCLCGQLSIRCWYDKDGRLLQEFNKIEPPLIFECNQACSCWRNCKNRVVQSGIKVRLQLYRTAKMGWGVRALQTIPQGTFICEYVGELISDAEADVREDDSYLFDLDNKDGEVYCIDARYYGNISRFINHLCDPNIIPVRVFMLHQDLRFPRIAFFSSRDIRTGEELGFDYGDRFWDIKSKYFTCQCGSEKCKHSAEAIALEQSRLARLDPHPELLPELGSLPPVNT

[2] = target: T2, Histone-lysine N-methyltransferase EHMT1 (Homo sapiens) (UniProt Q9H9B1); test: as §1, with “GLP (951” for “G9a (913”, “1235” for “1193”
T2 sequence (whole entry): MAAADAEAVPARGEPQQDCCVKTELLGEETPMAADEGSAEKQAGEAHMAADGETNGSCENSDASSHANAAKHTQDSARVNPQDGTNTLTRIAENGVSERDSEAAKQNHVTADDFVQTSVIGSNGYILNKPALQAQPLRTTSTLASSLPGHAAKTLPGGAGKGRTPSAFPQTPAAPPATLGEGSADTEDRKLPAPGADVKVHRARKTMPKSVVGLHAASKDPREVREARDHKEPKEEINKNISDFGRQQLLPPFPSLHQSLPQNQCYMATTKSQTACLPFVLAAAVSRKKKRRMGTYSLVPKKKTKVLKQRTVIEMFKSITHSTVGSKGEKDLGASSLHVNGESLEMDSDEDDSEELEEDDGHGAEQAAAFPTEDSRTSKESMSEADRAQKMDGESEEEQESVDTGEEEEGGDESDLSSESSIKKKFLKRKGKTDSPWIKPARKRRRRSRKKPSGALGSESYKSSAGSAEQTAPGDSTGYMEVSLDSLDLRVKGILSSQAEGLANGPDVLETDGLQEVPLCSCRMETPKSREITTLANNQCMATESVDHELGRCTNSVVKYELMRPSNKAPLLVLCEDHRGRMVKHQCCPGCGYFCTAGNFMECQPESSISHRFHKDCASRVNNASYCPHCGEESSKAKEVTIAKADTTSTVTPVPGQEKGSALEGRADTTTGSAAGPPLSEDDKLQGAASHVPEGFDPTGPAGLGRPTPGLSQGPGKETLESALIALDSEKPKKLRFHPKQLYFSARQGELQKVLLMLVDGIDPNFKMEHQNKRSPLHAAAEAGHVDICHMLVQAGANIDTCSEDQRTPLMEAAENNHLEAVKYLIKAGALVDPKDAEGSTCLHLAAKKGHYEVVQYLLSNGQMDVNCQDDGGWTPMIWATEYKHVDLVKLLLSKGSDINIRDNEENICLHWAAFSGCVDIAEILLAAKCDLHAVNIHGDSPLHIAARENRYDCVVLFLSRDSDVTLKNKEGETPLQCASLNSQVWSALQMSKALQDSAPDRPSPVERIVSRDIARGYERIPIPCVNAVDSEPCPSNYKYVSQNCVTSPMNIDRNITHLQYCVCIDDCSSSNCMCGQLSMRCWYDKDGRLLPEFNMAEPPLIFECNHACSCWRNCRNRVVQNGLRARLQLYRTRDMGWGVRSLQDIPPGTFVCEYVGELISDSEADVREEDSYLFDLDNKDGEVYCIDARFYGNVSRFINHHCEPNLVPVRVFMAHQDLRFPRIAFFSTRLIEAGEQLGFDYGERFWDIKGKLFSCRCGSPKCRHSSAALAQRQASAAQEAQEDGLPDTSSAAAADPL

[3] = target: T1, Histone-lysine N-methyltransferase EHMT2 (Homo sapiens); test: Inhibition of wild type recombinant human histone lysine methyltransferase G9a (913 to 1193 residues) expressed in Escherichia coli Rosetta BL21 DE3 PlysS assessed as zinc ions ejection from Cys4-Zn finger at 100 uM by FluoZin-3 based fluorescence assay
[4] = target: T2, Histone-lysine N-methyltransferase EHMT1 (Homo sapiens); test: Induction of wild type recombinant human histone lysine methyltransferase GLP (951 to 1235 residues) protein unfolding at 100 uM by circular dichroism analysis
[5] = target: T1, Histone-lysine N-methyltransferase EHMT2 (Homo sapiens); test: as §1, with “100” for “10”
[6] = target: T1, Histone-lysine N-methyltransferase EHMT2 (Homo sapiens); test: Induction of wild type recombinant human histone lysine methyltransferase G9a (913 to 1193 residues) protein unfolding at 100 uM by circular dichroism analysis
[7] = target: T2, Histone-lysine N-methyltransferase EHMT1 (Homo sapiens); test: Inhibition of wild type recombinant human histone lysine methyltransferase GLP (951 to 1235 residues) expressed in Escherichia coli Rosetta BL21 DE3 PlysS assessed as zinc ions ejection from Cys4-Zn finger at 100 uM by FluoZin-3 based fluorescence assay

Row | Structure (SMILES) | inhibition [1] | inhibition [2] | inhibition [3] | Activity [4] | inhibition [5] [%] | Activity [6] | inhibition [7]
1 | CCN(CC)C(=S)SSC(=S)N(CC)CC | inactive | inactive | Active | Active | > 50 | Active | Active
2 | O=c1c2ccccc2[se]n1-c1ccccc1 [EBSELEN] | inactive | inactive | Active | Active | > 50 | Active | Active
